Data published in US9302999B2, “Substituted triazoles as herbicides” (E. I. DU PONT DE NEMOURS AND COMPANY, priority 2012, dated 2016).

How the values were obtained:
Type in all cases: in vivo
[1] = system: crabgrass, large (large crabgrass, Digitaria sanguinalis); assay: Test A pre-/postemergence: crabgrass, large
Summary of the method: (§1)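 Rating scale 0–100 (100 = complete control), visual, ~10 days after application in the greenhouse. Applications: preemergence directed soil spray; postemergence at 1–2 leaves.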

[2] = system: barnyardgrass (Echinochloa crus-galli); assay: Test A pre-/postemergence: barnyardgrass
Summary of the method: as §1

[3] = system: morningglory (Ipomoea spp.); assay: Test A pre-/postemergence: morningglory
Summary of the method: as §1

[4] = system: lambsquarters (Chenopodium album); assay: Test C pre-/postemergence: lambsquarters
Summary of the method: (§2)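 Preemergence on seeds in loam/sand, postemergence on 2–18 cm (1–4-leaf) plants in peat-based medium; compounds in non-phytotoxic solvent with surfactant. After 13–15 days in greenhouse, visual rating versus controls, 0 (no effect) to 100 (complete control).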

[5] = system: pigweed (Amaranthus retroflexus); assay: Test A pre-/postemergence: pigweed
Summary of the method: as §1

soybean (Glycine max) = assay: Test C pre-/postemergence: soybean
Summary of the method: as §2

[6] = system: blackgrass (Alopecurus myosuroides); assay: Test C pre-/postemergence: blackgrass
Summary of the method: as §2

[7] = system: ragweed (common ragweed, Ambrosia elation); assay: Test C pre-/postemergence: ragweed
Summary of the method: as §2

rice (Oryza sativa) = assay: Test B flooded paddy: rice; settings: Flood; 125 g ai/ha; applied to paddy water at 2-leaf stage; visually evaluated after 13 to 15 days
Summary of the method: (§3)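 Paddy-water application: seedlings at 2-leaf stage, flood depth 3 cm maintained for the test duration. Evaluation after 13–15 days in the greenhouse by eye relative to controls; 0–100 scale.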

[8] = system: barnyardgrass (Echinochloa crus-galli); assay: Test B flooded paddy: barnyardgrass; settings: Flood; 125 g ai/ha; applied to paddy water at 2-leaf stage; visually evaluated after 13 to 15 days
Summary of the method: as §3

[9] = Postemergence, 125 g ai/ha, 0 to 100 scale, 0 is no effect, 100 is complete control
[10] = Postemergence, 500 g ai/ha, visual rating on 0 to 100 scale (0 no effect, 100 complete control), approximately ten days
[11] = Preemergence, 125 g ai/ha, 0 to 100 scale where 0 is no effect and 100 is complete control
[12] = Preemergence, 500 g ai/ha, 0 to 100 scale (0 no effect, 100 complete control)
[13] = Postemergence, 31 g ai/ha, scale 0 to 100 (0 no effect, 100 complete control)
[14] = Postemergence, 62 g ai/ha, scale 0 to 100 (0 no effect, 100 complete control)
[15] = Postemergence, 125 g ai/ha, scale 0 to 100, 0 no effect, 100 complete control
[16] = Postemergence, 250 g ai/ha, scale 0 to 100
[17] = Preemergence, 31 g ai/ha, scale of 0 to 100, 0 is no effect, 100 is complete control
[18] = Preemergence, 62 g ai/ha, scale of 0 to 100, 0 is no effect, 100 is complete control
[19] = Preemergence, 125 g ai/ha, scale 0 to 100, 0 no effect, 100 complete control
[20] = Preemergence, 250 g ai/ha, scale 0 to 100, 0 no effect, 100 complete control
[21] = Postemergence, 500 g ai/ha, 0 to 100 scale, 0 is no effect, 100 is complete control

SMILES: Cc1nn(-c2ccc(C(F)(F)F)cc2)nc1Oc1ccnc(C(F)(F)F)c1 [Compound 120]
- Crabgrass, Large plant response rating [1, 9]: 80
- Crabgrass, Large plant response rating [1, 10]: 90
- Plant response rating, Crabgrass, Large [1, 11]: 100
- Plant response rating, Crabgrass, Large [1, 12]: 100
- Barnyardgrass plant response rating [2, 9]: 60
- Barnyardgrass plant response rating [2, 10]: 80
- Plant response rating, Barnyardgrass [2, 11]: 90
- Plant response rating, Barnyardgrass [2, 12]: 100
- Morningglory plant response rating [3, 9]: 90
- Morningglory plant response rating [3, 10]: 100
- Plant response rating, Morningglory [3, 11]: 10
- Plant response rating, Morningglory [3, 12]: 30
- Plant response rating, Lambsquarters [4, 13]: 100
- Plant response rating, Lambsquarters [4, 14]: 100
- Plant response rating, Lambsquarters [4, 15]: 100
- Plant response rating, Lambsquarters [4, 16]: 100
- Plant response rating, Lambsquarters [4, 17]: 85
- Plant response rating, Lambsquarters [4, 18]: 100
- Plant response rating, Lambsquarters [4, 19]: 100
- Plant response rating, Lambsquarters [4, 20]: 100
- Pigweed plant response rating [5, 9]: 90
- Pigweed plant response rating [5, 10]: 100
- Plant response rating, Pigweed [5, 11]: 100
- Plant response rating, Pigweed [5, 12]: 100
- Plant response rating, Soybean (soybean (Glycine max); [13]): 25
- Plant response rating, Soybean (soybean (Glycine max); [14]): 25
- Plant response rating, Soybean (soybean (Glycine max); [15]): 55
- Plant response rating, Soybean (soybean (Glycine max); [16]): 100
- Plant response rating, Soybean (soybean (Glycine max); [17]): 0
- Plant response rating, Soybean (soybean (Glycine max); [18]): 5
- Plant response rating, Soybean (soybean (Glycine max); [19]): 10
- Plant response rating, Soybean (soybean (Glycine max); [20]): 20
- Plant response rating, Blackgrass [6, 13]: 25
- Plant response rating, Blackgrass [6, 14]: 30
- Plant response rating, Blackgrass [6, 15]: 60
- Plant response rating, Blackgrass [6, 16]: 85
- Plant response rating, Blackgrass [6, 17]: 90
- Plant response rating, Blackgrass ([6]; Preemergence, 62 g ai/ha, scale 0 to 100, 0 no effect, 100 complete control): 90
- Plant response rating, Blackgrass [6, 19]: 90
- Plant response rating, Blackgrass [6, 20]: 90
- Plant response rating, Ragweed [7, 13]: 60
- Plant response rating, Ragweed [7, 14]: 60
- Plant response rating, Ragweed [7, 15]: 80
- Plant response rating, Ragweed [7, 16]: 85
- Plant response rating, Ragweed [7, 17]: 0
- Plant response rating, Ragweed [7, 18]: 45
- Plant response rating, Ragweed [7, 19]: 45
- Plant response rating, Ragweed [7, 20]: 65

SMILES: CCOCc1nn(-c2ccc(F)cc2)nc1Oc1ccnc(C(F)(F)F)c1 [Compound 163]
- Plant response rating, Rice (0 to 100 scale, 0 is no effect, 100 is complete control) (rice (Oryza sativa)): 15
- Plant response rating, Crabgrass, Large [1, 9]: 70
- Crabgrass, Large plant response rating [1, 21]: 100
- Plant response rating, Crabgrass, Large [1, 11]: 100
- Plant response rating, Crabgrass, Large [1, 12]: 100
- Plant response rating, Barnyardgrass (0 to 100 scale, 0 is no effect, 100 is complete control) [8]: 15
- Plant response rating, Barnyardgrass [2, 9]: 70
- Barnyardgrass plant response rating [2, 21]: 100
- Plant response rating, Barnyardgrass [2, 11]: 90
- Plant response rating, Barnyardgrass [2, 12]: 100
- Plant response rating, Morningglory [3, 9]: 30
- Morningglory plant response rating [3, 21]: 80
- Plant response rating, Morningglory [3, 11]: 10
- Plant response rating, Morningglory [3, 12]: 30
- Plant response rating, Pigweed [5, 9]: 100
- Pigweed plant response rating [5, 21]: 100
- Plant response rating, Pigweed [5, 11]: 100
- Plant response rating, Pigweed [5, 12]: 100
- Plant response rating, Soybean (soybean (Glycine max); [17]): 5
- Plant response rating, Soybean (soybean (Glycine max); [18]): 5
- Plant response rating, Soybean (soybean (Glycine max); [19]): 10
- Plant response rating, Soybean (soybean (Glycine max); [20]): 20
- Plant response rating, Blackgrass [6, 17]: 5
- Plant response rating, Blackgrass [6, 18]: 85
- Plant response rating, Blackgrass [6, 19]: 90
- Plant response rating, Blackgrass [6, 20]: 95
- Plant response rating, Ragweed [7, 17]: 0
- Plant response rating, Ragweed [7, 18]: 10
- Plant response rating, Ragweed [7, 19]: 20
- Plant response rating, Ragweed [7, 20]: 35
